Article PMC8227885 (Viruses, 2021)

test system: RBD; format: binding, SARS-CoV-2

Substance	biosensor activity with RBD-Lg, ACE2 deletions and mutants
ACE2 K31	significantly reduced biosensor activity
K353A	almost abolished biosensor activity
Sm-ACE2-18-515	significantly lower than that of Sm-ACE2-18-615/RBD-Lg
Sm-ACE2-18–415	reduced biosensor activity
